These compounds were tested against endogenous CETP from serum (Homo sapiens (Human), UniProt P11597) (assay: RTA assay in 95% human serum (CETP-catalyzed CE and TG transfer, endogenous CETP)). Conditions: RTA assay in 95% human serum; read-out: IC50.
Chain of endogenous CETP from serum (P11597 18-493 limits assumed): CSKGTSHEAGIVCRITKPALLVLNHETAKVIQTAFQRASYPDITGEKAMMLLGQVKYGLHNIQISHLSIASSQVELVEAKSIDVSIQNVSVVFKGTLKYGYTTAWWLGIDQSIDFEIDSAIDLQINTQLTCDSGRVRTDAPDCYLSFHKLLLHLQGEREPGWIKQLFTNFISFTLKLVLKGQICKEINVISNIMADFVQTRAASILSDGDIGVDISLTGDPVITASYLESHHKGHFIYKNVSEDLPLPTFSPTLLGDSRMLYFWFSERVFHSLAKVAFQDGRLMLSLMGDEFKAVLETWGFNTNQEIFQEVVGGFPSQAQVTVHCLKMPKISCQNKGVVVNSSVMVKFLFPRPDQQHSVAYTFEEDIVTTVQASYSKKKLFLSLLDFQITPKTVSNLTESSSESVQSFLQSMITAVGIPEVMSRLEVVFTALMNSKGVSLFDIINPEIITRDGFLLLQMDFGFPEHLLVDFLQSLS
Type: biochemical
`N#Cc1cscc1-c1ccc(C(F)(F)F)cc1[C@@H]1CC[C@H]2[C@@H](c3cc(C(F)(F)F)cc(C(F)(F)F)c3)OC(=O)N12` [Example 12, 4-[2-{(1R,5S,7aS)-1-[3,5-bis(trifluoromethyl)phenyl]-3-oxotetrahydro-1H-pyrrolo[1,2-c][1,3]oxazol-5-yl}-4-(trifluoromethyl)phenyl]thiophene-3-carbonitrile] showed an IC50 of 266 nM. In the case of `COc1ncccc1-c1ccc(C(F)(F)F)cc1[C@@H]1CC[C@H]2[C@@H](c3cc(C(F)(F)F)cc(C(F)(F)F)c3)OC(=O)N12` [Example 21, (1R,5S,7aS)-1-[3,5-bis(trifluoromethyl)phenyl]-5-[2-(2-methoxypyridin-3-yl)-5-(trifluoromethyl)phenyl]tetrahydro-1H-pyrrolo[1,2-c][1,3]oxazol-3-one], the IC50 is reported as 316 nM. `Cc1ccc(Cl)cc1-c1ccc(C(F)(F)F)cc1[C@@H]1CC[C@H]2[C@@H](c3cc(C(F)(F)F)cc(C(F)(F)F)c3)OC(=O)N12` [Example 26, (1R,5S,7aS)-1-[3,5-bis(trifluoromethyl)phenyl]-5-[5′-chloro-2′-methyl-4-(trifluoromethyl)biphenyl-2-yl]tetrahydro-1H-pyrrolo[1,2-c][1,3]oxazol-3-one] was tested, and the IC50 was 1220 nM. `O=C1O[C@H](c2cc(C(F)(F)F)cc(C(F)(F)F)c2)[C@@H]2CC[C@@H](c3cc(C(F)(F)F)ccc3-c3cc(Cl)ccc3F)N12` [Example 23, (1R,5S,7aS)-1-[3,5-bis(trifluoromethyl)phenyl]-5-[5′-chloro-2′-fluoro-4-(trifluoromethyl)biphenyl-2-yl]tetrahydro-1H-pyrrolo[1,2-c][1,3]oxazol-3-one] showed an IC50 of 188 nM. Work on `COc1ncc(-c2ccc(C(=O)O)cc2C)cc1-c1ncc(C(F)(F)F)cc1[C@@H]1C=C[C@H]2[C@@H](c3cc(C(F)(F)F)cc(C(F)(F)F)c3)OC(=O)N12` [Example 69, 4-(3-((1R,5S,7aS)-1-(3,5-bis(trifluoromethyl)phenyl)-3-oxo-1,3,5,7a-tetrahydropyrrolo[1,2-c]oxazol-5-yl)-2′-methoxy-5-(trifluoromethyl)-[2,3′-bipyridin]-5′-yl)-3-methylbenzoic acid] yielded an IC50 of 456 nM. `COc1cc(F)c(C(C)C)cc1-c1ccc(C(F)(F)F)cc1[C@@H]1C=C[C@H]2[C@@H](c3cc(C(F)(F)F)cc(C(F)(F)F)c3)OC(=O)N12` [Example 51, (1R,5S,7aS)-1-[3,5-bis(trifluoromethyl)phenyl]-5-[4′-fluoro-2′-methoxy-5′-(1-methylethyl)-4-(trifluoromethyl)biphenyl-2-yl]-5,7a-dihydro-1H-pyrrolo[1,2-c][1,3]oxazol-3-one] was tested, and the IC50 was 122 nM. `COc1ccc(F)cc1-c1ccc(C(F)(F)F)cc1[C@@H]1CC[C@H]2[C@@H](c3cc(C(F)(F)F)cc(C(F)(F)F)c3)OC(=O)N12` [Example 19, (1R,5S,7aS)-1-[3,5-bis(trifluoromethyl)phenyl]-5-[5′-fluoro-2′-methoxy-4-(trifluoromethyl)biphenyl-2-yl]tetrahydro-1H-pyrrolo[1,2-c][1,3]oxazol-3-one] gave an IC50 of 166 nM. For `COc1ccc([C@@H]2C[C@@H](O)[C@@H](O)C2)cc1-c1ccc(C(F)(F)F)cc1[C@@H]1CC[C@H]2[C@@H](c3cc(C(F)(F)F)cc(C(F)(F)F)c3)OC(=O)N12` [Example 58, (1R,5S,7aS)-1-[3,5-bis(trifluoromethyl)phenyl]-5-{5′-[(1s,3R,4S)-3,4-dihydroxycyclopentyl]-2′-methoxy-4-(trifluoromethyl)biphenyl-2-yl}tetrahydro-1H-pyrrolo[1,2-c][1,3]oxazol-3-one], the IC50 was 418 nM. Compound `COc1cc(F)c(C(C)C)cc1-c1cnc(N(C)C)cc1[C@@H]1C=C[C@H]2[C@@H](c3cc(C(F)(F)F)cc(C(F)(F)F)c3)OC(=O)N12` [Example 49, (1R,5S,7aS)-1-[3,5-bis(trifluoromethyl)phenyl]-5-{2-(dimethylamino)-5-[4-fluoro-2-methoxy-5-(1-methylethyl)phenyl]pyridin-4-yl}-5,7a-dihydro-1H-pyrrolo[1,2-c][1,3]oxazol-3-one] has an IC50 of 438 nM. Compound `O=C1O[C@H](c2cc(C(F)(F)F)cc(C(F)(F)F)c2)[C@@H]2CC[C@@H](c3cc(C(F)(F)F)ccc3C3=CCCCC3)N12` [Example 17, (1R,5S,7aS)-1-[3,5-bis(trifluoromethyl)phenyl]-5-[2-cyclohex-1-en-1-yl-5-(trifluoromethyl)phenyl]tetrahydro-1H-pyrrolo[1,2-c][1,3]oxazol-3-one] has an IC50 of 73.6 nM. Work on `COc1ncc(-c2c(C)cc(C(=O)O)cc2C)cc1-c1ccc(C(F)(F)F)cc1[C@@H]1CC[C@H]2[C@@H](c3cc(C(F)(F)F)cc(C(F)(F)F)c3)OC(=O)N12` [Example 56, 4-{5-[2-{(1R,5S,7aS)-1-[3,5-bis(trifluoromethyl)phenyl]-3-oxotetrahydro-1H-pyrrolo[1,2-c][1,3]oxazol-5-yl}-4-(trifluoromethyl)phenyl]-6-methoxypyridin-3-yl}-3,5-dimethylbenzoic acid] yielded an IC50 of 47 nM. `COC(=O)c1ccc(-c2cc(-c3ccc(C(F)(F)F)cc3[C@@H]3CC[C@H]4[C@@H](c5cc(C(F)(F)F)cc(C(F)(F)F)c5)OC(=O)N34)c(OC)cc2F)c(C)c1` [Example 6, methyl 2″-{(1R,5S,7aS)-1-[3,5-bis(trifluoromethyl)phenyl]-3-oxotetrahydro-1H-pyrrolo[1,2-c][1,3]oxazol-5-yl}-6′-fluoro-4′-methoxy-2-methyl-4″- (trifluoromethyl)-1,1′:3′,1″- terphenyl-4-carboxylate] showed an IC50 of 641 nM. With `COc1ccc(C2CCC(C(=O)O)CC2)cc1-c1ccc(C(F)(F)F)cc1[C@@H]1CC[C@H]2[C@@H](c3cc(C)cc(C(F)(F)F)c3)OC(=O)N12` (stereo partly drawn) [Example 52, 4-[6-methoxy-2′-{(1R,5S,7aS)-1-[3-methyl-5-(trifluoromethyl)phenyl]-3-oxotetrahydro-1H-pyrrolo[1,2-c][1,3]oxazol-5-yl}-4′-(trifluoromethyl)biphenyl-3-yl]cyclohexanecarboxylic acid] the IC50 was 260 nM. Work on `Cc1cscc1-c1ccc(C(F)(F)F)cc1[C@@H]1CC[C@H]2[C@@H](c3cc(C(F)(F)F)cc(C(F)(F)F)c3)OC(=O)N12` [Example 24, (1R,5S,7aS)-1-[3,5-bis(trifluoromethyl)phenyl]-5-[2-(4-methylthiophen-3-yl)-5-(trifluoromethyl)phenyl]tetrahydro-1H-pyrrolo[1,2-c][1,3]oxazol-3-one] yielded an IC50 of 122 nM. Compound `COc1ccc([C@@H]2CC(=O)N[C@H]2C)cc1-c1ccc(C(F)(F)F)cc1[C@@H]1CC[C@H]2[C@@H](c3cc(C(F)(F)F)cc(C(F)(F)F)c3)OC(=O)N12` [Example 76, (1R,5S,7aS)-1-[3,5-bis(trifluoromethyl)phenyl]-5-{2′-methoxy-5′-[(2S,3S)-2-methyl-5-oxopyrrolidin-3-yl]-4-(trifluoromethyl)biphenyl-2-yl}tetrahydro-1H-pyrrolo[1,2-c][1,3]oxazol-3-one] has an IC50 of 466 nM. With `COc1ccc(Cl)cc1-c1ccc(C(F)(F)F)cc1[C@@H]1CC[C@H]2[C@@H](c3cc(C(F)(F)F)cc(C(F)(F)F)c3)OC(=O)N12` [Example 14, (1R,5S,7aS)-1-[3,5-bis(trifluoromethyl)phenyl]-5-[5′-chloro-2′-methoxy-4-(trifluoromethyl)biphenyl-2-yl]tetrahydro-1H-pyrrolo[1,2-c][1,3]oxazol-3-one] the IC50 was 233 nM. `COc1cc(F)c(-c2ccc(C(=O)O)cc2C)cc1-c1ccc(C(F)(F)F)cc1[C@@H]1C=C[C@H]2[C@@H](c3cc(C(F)(F)F)cc(C(F)(F)F)c3)OC(=O)N12` [Example 50, 2″-{(1R,5S,7aS)-1-[3,5-bis(trifluoromethyl)phenyl]-3-oxo-5,7a-dihydro-1H-pyrrolo[1,2-c][1,3]oxazol-5-yl}-6′-fluoro-4′-methoxy-2-methyl-4″- (trifluoromethyl)-1,1′:3′,1″- terphenyl-4-carboxylic acid] was tested, and the IC50 was 47.9 nM. In the case of `COc1ncc(-c2ccc(C(=O)O)cc2C)cc1-c1ccc(C(F)(F)F)cc1[C@@H]1C=C[C@H]2[C@@H](c3cc(C(F)(F)F)cc(C(F)(F)F)c3)OC(=O)N12` [Example 67, 4-(5-(2-((1R,5S,7aS)-1-(3,5-bis(trifluoromethyl)phenyl)-3-oxo-1,3,5,7a-tetrahydropyrrolo[1,2-c]oxazol-5-yl)-4-(trifluoromethyl)phenyl)-6-methoxypyridin-3-yl)-3-methylbenzoic acid], the IC50 is reported as 199 nM. Compound `COc1cc(F)c(CCC(=O)O)cc1-c1ccc(C(F)(F)F)cc1[C@@H]1CCC[C@H]2[C@@H](c3cc(C(F)(F)F)cc(C(F)(F)F)c3)OC(=O)N12` [Example 46, 3-[2′-{(1R,5S,8aS)-1-[3,5-bis(trifluoromethyl)phenyl]-3-oxohexahydro[1,3]oxazolo[3,4-a]pyridin-5-yl}-4-fluoro-6-methoxy-4′-(trifluoromethyl)biphenyl-3-yl]propanoic acid] has an IC50 of 1630 nM. `COc1cc(F)c(-c2ccc(C(=O)O)cc2C)cc1-c1ccc(C(F)(F)F)cc1[C@@H]1CCC[C@H]2[C@@H](c3cc(C(F)(F)F)cc(C(F)(F)F)c3)OC(=O)N12` [Example 44, 2″-{(1R,5S,8aS)-1-[3,5-bis(trifluoromethyl)phenyl]-3-oxohexahydro[1,3]oxazolo[3,4-a]pyridin-5-yl}-6′-fluoro-4′-methoxy-2-methyl-4″- (trifluoromethyl)-1,1′:3′,1″- terphenyl-4-carboxylic acid] showed an IC50 of 718 nM.

Same assay, conditions: RTA assay, 95% human serum; read-out: RTA (95% HS)
Work on `COc1ccc([C@H]2[C@H](C)NC(=O)[C@@H]2C)cc1-c1ccc(C(F)(F)F)cc1[C@@H]1CC[C@H]2[C@@H](c3cc(C(F)(F)F)cc(C(F)(F)F)c3)OC(=O)N12` [Example 4, (1R,5S,7aS)-1-(3,5-bis(trifluoromethyl)phenyl)-5-(5′-((2S,3S,4R)-2,4-dimethyl-5-oxopyrrolidin-3-yl)-2′-methoxy-4-(trifluoromethyl)-[1,1′-biphenyl]-2-yl)tetrahydropyrrolo[1,2-c]oxazol-3(1H)one] yielded an IC50 of 398 nM. For `COc1ccc(CCc2n[nH]c(=O)o2)cc1-c1ccc(C(F)(F)F)cc1[C@@H]1CCC[C@H]2[C@@H](c3cc(C(F)(F)F)cc(C(F)(F)F)c3)OC(=O)N12` [Example 80, (1R,5S,8aS)-1-[3,5-bis(trifluoromethyl)phenyl]-5-{2′-methoxy-5′-[2-(5-oxo-4,5-dihydro-1,3,4-oxadiazol-2-yl)ethyl]-4-(trifluoromethyl)biphenyl-2-yl}hexahydro[1,3]oxazolo[3,4-a]pyridin-3-one], the IC50 was 942 nM.

— patent US8871738B2, “Fused bicyclic oxazolidinone CETP inhibitor” (Merck Sharp & Dohme Corp., priority 2011, dated 2014)
